Data as given in ChEMBL document CHEMBL5120792, “Nyuzenamide C, an Antiangiogenic Epoxy Cinnamic Acid-Containing Bicyclic Peptide from a Riverine Streptomyces sp” (J Nat Prod, 2022).

Columns and labels:
[1] = system: HUVEC; experiment: Antiangiogenic activity in HUVEC assessed as inhibition of VEGF-induced capillary tube formation incubated for 6 hrs by capillary tube formation assay; type: functional, cell-based; conditions: Homo sapiens
[2] = system: Hepa1c1c7; experiment: Activation of QR in mouse Hepa1c1c7 cells assessed as increase in QR activity at 20 uM incubated for 24 hrs by NADPH-dependent menadiol-mediated reduction of MTT based assay relative to control; type: cell-based; conditions: filed as activator

## CCN(CC)CCNC(=O)c1c(C)[nH]c(/C=C2\C(=O)Nc3ccc(F)cc32)c1C [SUNITINIB]
[1]
  IC50: 2.1 µM

## CC(C)C[C@H]1NC(=O)[C@@H]2CCCN2C(=O)[C@H]([C@@H](O)c2ccccc2)NC(=O)CNC(=O)[C@H](C(C)C)NC(=O)[C@H]2NC(=O)[C@@H](NC(=O)/C=C/c3ccccc3[C@H]3O[C@@H]3C)[C@@H](C)OC(=O)[C@@H](CC(N)=O)NC(=O)[C@H](NC(=O)[C@H](O)NC1=O)[C@@H](O)c1ccc(O)c(c1)Oc1ccc2cc1
[2]
  fold change (FC): 1.8
[1]
  IC50: 8.9 µM
